Data: US20260191858A1, “COMBINATION THERAPIES” (Kallyope, Inc., priority 2022, published 2026)

Molecular target: T1, human GPR119 (hGPR119) (Homo sapiens, UniProt Q8TDV5)
T1 construct: expressed in transfected cells; host or cells: CHO-K1
T1 sequence (Q8TDV5 1-335): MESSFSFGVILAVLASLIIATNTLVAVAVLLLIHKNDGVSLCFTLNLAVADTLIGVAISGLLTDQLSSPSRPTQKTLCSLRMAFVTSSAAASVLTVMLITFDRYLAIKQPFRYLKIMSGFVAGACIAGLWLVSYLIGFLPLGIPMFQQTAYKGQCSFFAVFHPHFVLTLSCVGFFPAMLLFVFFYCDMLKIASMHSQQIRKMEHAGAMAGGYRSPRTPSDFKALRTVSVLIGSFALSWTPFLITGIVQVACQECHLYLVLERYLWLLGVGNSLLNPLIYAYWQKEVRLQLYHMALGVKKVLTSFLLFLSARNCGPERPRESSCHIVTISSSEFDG
Test: cAMP accumulation assay in CHO-K1 cells stably expressing hGPR119
Assay type: cell-based
Details: cAMP HTRF, 60 minutes
Description: CHO-K1 cells stably expressing human GPR119 (hGPR119) were prepared by transfection of a GPR119-carrying plasmid using Lipofectamine 2000 (following manufacturer instructions). A stable cell line was established using the limiting dilution method with geneticine selection. Assay-ready frozen (ARF) cells were prepared and used throughout the study.
The assay was performed in a 384-well plate format using the CAMP Gs dynamic assay kit from Cisbio. ARF cells expressing hGPR119 were thawed, washed and then resuspended in CAMP stimulation buffer at a cell density of 1.1×10^6 cells/mL. Cells were plated at a density of ~10,000 cells/well (9 μL/well). Dose response curves for the tested compounds were prepared in a cAMP stimulation buffer, containing 0.1% Tween 80 at 4 fold the final concentration. The compounds were then transferred to the cell plates using BRAVO (3 μL/well) and the plates were incubated for 60 minutes at 37° C./5% CO2. Detection buffer (10 μL, prepared as described in the CAMP Gs dynamic kit) were added to each well, and the plates were incubated at ambient temperature for 1 hr.
RT-FRET was measured using a ClarioSTAR plate reader, calculating the ratio between emissions at 665 nm and 620 nm (HTRF ratio). The HTRF ratio for positive (Max) and negative (Min) controls were used to normalize HTRF data and generate values for % activity. EC50 and Max activity values were determined using a standard 4-parameter fit.

SMILES	EC50
O=C(CC1CN(C(=O)Cc2ccc(OCCCC3CCN(c4ncc(Cl)cn4)CC3)cc2F)C1)NC(CO)(CO)CO [Compound A7, 2-[1-[2-[4-[3-[1-(5-chloropyrimidin-2-yl)-4-piperidyl]propoxy]-2-fluoro-phenyl]acetyl]azetidin-3-yl]-N-[2-hydroxy-1,1-bis(hydroxymethyl)ethyl]acetamide]	100 to 1000 nM
O=C(Cc1ccc(OCCCC2CCN(c3ncc(Cl)cn3)CC2)cc1F)N1CC(CCNC[C@H](O)[C@@H](O)[C@H](O)[C@H](O)CO)C1 [Compound A31, 2-[4-[3-[1-(5-chloropyrimidin-2-yl)-4-piperidyl]propoxy]-2-fluoro-phenyl]-1-[3-[2-[[(2S,3R,4R,5R)-2,3,4,5,6-pentahydroxyhexyl]amino]ethyl]azetidin-1-yl]ethanone]	100 to 1000 nM
NCCOCCOCCNCC1CN(C(=O)Cc2ccc(OCCCC3CCN(c4ncc(Cl)cn4)CC3)cc2F)C1 [Compound A24, 1-[3-[[2-[2-(2-aminoethoxy)ethoxy]ethylamino]methyl]azetidin-1-yl]-2-[4-[3-[1-(5-chloropyrimidin-2-yl)-4-piperidyl]propoxy]-2-fluoro-phenyl]ethanone]	100 to 1000 nM
COc1cnc(N2CCC(CCCOc3ccc(CC(=O)N4CC(CNC[C@H](O)[C@@H](O)[C@H](O)[C@H](O)CO)C4)c(F)c3)CC2)nc1 (racemic) [Compound A49, 2-[2-fluoro-4-[3-[1-(5-methoxypyrimidin-2-yl)-4-piperidyl]propoxy]phenyl]-1-[3-[rac-(2S,3R,4R,5R)-2,3,4,5,6-pentahydroxyhexyl]amino]methyl]azetidin-1-yl]ethanone]	100 to 1000 nM
O=C(NCCCCCCS(=O)(=O)O)C1CN(C(=O)Cc2ccc(OCCCC3CCN(c4ncc(Cl)cn4)CC3)cc2F)C1 [Compound A67, 6-[[1-[2-[4-[3-[1-(5-chloropyrimidin-2-yl)-4-piperidyl]propoxy]-2-fluoro-phenyl]acetyl]azetidine-3-carbonyl]amino]hexane-1-sulfonic acid]	100 to 1000 nM
CCCc1cnc(N2CCC(CCCOc3cc(F)c(CC(=O)N4CC(CNCCNC(=O)NC(CO)(CO)CO)C4)c(F)c3)CC2)nc1 [Compound A47, 1-(2-(((1-(2-(2,6-difluoro-4-(3-(1-(5-propylpyrimidin-2-yl)piperidin-4-yl)propoxy)phenyl)acetyl)azetidin-3-yl)methyl)amino)ethyl)-3-(1,3-dihydroxy-2-(hydroxymethyl)propan-2-yl)urea]	100 to 1000 nM
O=C(CC1CN(C(=O)Cc2ccc(OCCCC3CCN(c4ncc(Cl)cn4)CC3)cc2F)C1)NCCCS(=O)(=O)O [Compound A69, 3-[[2-[1-[2-[4-[3-[1-(5-chloropyrimidin-2-yl)-4-piperidyl]propoxy]-2-fluoro-phenyl]acetyl]azetidin-3-yl]acetyl]amino]propane-1-sulfonic acid]	100 to 1000 nM
O=C(Cc1ccc(OCCCC2CCN(c3ncc(Cl)cn3)CC2)cc1F)N1CC(CN[C@@H]2C[C@H](O)[C@@H](O)[C@H]2O)C1 (racemic) [Compound A21, 2-[4-[3-[1-(5-chloropyrimidin-2-yl)-4-piperidyl]propoxy]-2-fluoro-phenyl]-1-[3-[[[rac-(1R,2S,3R,4S)-2,3,4-trihydroxycyclopentyl]amino]methyl]azetidin-1-yl]ethanone]	100 to 1000 nM
COCc1cnc(N2CCC(CCCOc3ccc(CC(=O)N4CC(CNCC[C@@H](O)C[C@@H](O)CC(=O)O)C4)c(F)c3)CC2)nc1 [Compound A52, (3R,5R)-7-[[1-[2-[2-fluoro-4-[3-[1-[5-(methoxymethyl)pyrimidin-2-yl]-4-piperidyl]propoxy]phenyl]acetyl]azetidin-3-yl]methylamino]-3,5-dihydroxy-heptanoic acid]	100 to 1000 nM
O=C(CC1CN(C(=O)Cc2ccc(OCCCC3CCN(c4ncc(Cl)cn4)CC3)cc2F)C1)NC[C@H](O)[C@@H](O)[C@H](O)[C@H](O)CO (racemic) [Compound A11, 2-[1-[2-[4-[3-[1-(5-chloropyrimidin-2-yl)-4-piperidyl]propoxy]-2-fluoro-phenyl]acetyl]azetidin-3-yl]-N-[rac-(2S,3R,4R,5R)-2,3,4,5,6-pentahydroxyhexyl]acetamide]	100 to 1000 nM
O=C(NC[C@H](O)[C@@H](O)[C@H](O)[C@H](O)CO)C1CN(C(=O)Cc2ccc(OCCCC3CCN(c4ncc(Cl)cn4)CC3)cc2F)C1 (racemic) [Compound A10, 1-[2-[4-[3-[1-(5-chloropyrimidin-2-yl)-4-piperidyl]propoxy]-2-fluoro-phenyl]acetyl]-N-[rac-(2S,3R,4R,5R)-2,3,4,5,6-pentahydroxyhexyl]azetidine-3-carboxamide]	100 to 1000 nM
CCCc1cnc(N2CCC(CCCOc3ccc(CC(=O)N4CC(CNCCNC(=O)NC(CO)(CO)CO)C4)c(F)c3)CC2)nc1 [Compound A43, 1-(1,3-dihydroxy-2-(hydroxymethyl)propan-2-yl)-3-(2-(((1-(2-(2-fluoro-4-(3-(1-(5-propylpyrimidin-2-yl)piperidin-4-yl)propoxy)phenyl)acetyl)azetidin-3-yl)methyl)amino)ethyl)urea]	100 to 1000 nM
COCc1cnc(N2CCC(CCCOc3cc(F)c(CC(=O)N4CC(CNC[C@H](O)[C@@H](O)[C@H](O)[C@H](O)CO)C4)c(F)c3)CC2)nc1 [Compound A56]	100 to 1000 nM

Second part, the molecule after the results:

EC50	SMILES
≤ 100 nM	CCCc1cnc(N2CCC(CCCOc3ccc(CC(=O)N4CC(CNCC(O)(CO)CO)C4)c(F)c3)CC2)nc1 [Compound A41, 1-(3-(((2,3-dihydroxy-2-(hydroxymethyl)propyl)amino)methyl)azetidin-1-yl)-2-(2-fluoro-4-(3-(1-(5-propylpyrimidin-2-yl)piperidin-4-yl)propoxy)phenyl)ethan-1-one]
≤ 100 nM	CCOc1cnc(N2CCC(CCCOc3cc(F)c(CC(=O)N4CC(CNC[C@H](O)[C@@H](O)[C@H](O)[C@H](O)CO)C4)c(F)c3)CC2)nc1 [Compound A58, 2-[4-[3-[1-(5-ethoxypyrimidin-2-yl)-4-piperidyl]propoxy]-2,6-difluoro-phenyl]-1-[3-[[[(2S,3R,4R,5R)-2,3,4,5,6-pentahydroxyhexyl]amino]methyl]azetidin-1-yl]ethanone]
≤ 100 nM	O=C(NCC(O)(CO)CO)C1CN(C(=O)Cc2ccc(OCCCC3CCN(c4ncc(Cl)cn4)CC3)cc2F)C1 [Compound A5, 1-[2-[4-[3-[1-(5-chloropyrimidin-2-yl)-4-piperidyl]propoxy]-2-fluoro-phenyl]acetyl]-N-[2,3-dihydroxy-2-(hydroxymethyl)propyl]azetidine-3-carboxamide]
≤ 100 nM	O=C(Cc1ccc(OCCCC2CCN(c3ncc(Cl)cn3)CC2)cc1F)N1CC(CNCC(O)(CO)CO)C1 [Compound A15, 2-[4-[3-[1-(5-chloropyrimidin-2-yl)-4-piperidyl]propoxy]-2-fluoro-phenyl]-1-[3-[[[2,3-dihydroxy-2-(hydroxymethyl)propyl]amino]methyl]azetidin-1-yl]ethanone]
≤ 100 nM	O=C(Cc1ccc(OCCCC2CCN(c3ncc(Cl)cn3)CC2)cc1F)N1CC(CNC(CO)(CO)CO)C1 [Compound A16, 2-[4-[3-[1-(5-chloropyrimidin-2-yl)-4-piperidyl]propoxy]-2-fluoro-phenyl]-1-[3-[[[2-hydroxy-1,1-bis(hydroxymethyl)ethyl]amino]methyl]azetidin-1-yl]ethanone]
≤ 100 nM	CCCc1cnc(N2CCC(CCCOc3ccc(CC(=O)N4CC(CNCC(CO)CO)C4)c(F)c3)CC2)nc1 [Compound A40, 2-(2-fluoro-4-(3-(1-(5-propylpyrimidin-2-yl)piperidin-4-yl)propoxy)phenyl)-1-(3-(((3-hydroxy-2-(hydroxymethyl)propyl)amino)methyl)azetidin-1-yl)ethan-1-one]
≤ 100 nM	CCOc1cnc(N2CCC(CCCOc3ccc(CC(=O)N4CC(CC(=O)NCC(O)(CO)CO)C4)c(F)c3)CC2)nc1 [Compound A57, N-[2,3-dihydroxy-2-(hydroxymethyl)propyl]-2-[1-[2-[4-[3-[1-(5-ethoxypyrimidin-2-yl)-4-piperidyl]propoxy]-2-fluoro-phenyl]acetyl]azetidin-3-yl]acetamide]
≤ 100 nM	O=C(Cc1ccc(OCCCC2CCN(c3ncc(Cl)cn3)CC2)cc1F)N1CC(CCNC[C@H](O)[C@H](O)[C@H](O)CO)C1 [Compound A59, 2-[4-[3-[1-(5-chloropyrimidin-2-yl)-4-piperidyl]propoxy]-2-fluoro-phenyl]-1-[3-[2-[[(2S,3S,4R)-2,3,4,5-tetrahydroxypentyl]amino]ethyl]azetidin-1-yl]ethanone]
≤ 100 nM	O=C(Cc1ccc(OCCCC2CCN(c3ncc(Cl)cn3)CC2)cc1F)N1CC(CNCCOCCOCCO)C1 [Compound A23]
≤ 100 nM	O=C(Cc1ccc(OCCCC2CCN(c3ncc(Cl)cn3)CC2)cc1F)N1CC(CCNC(CO)CO)C1 [Compound A26, 2-(4-(3-(1-(5-chloropyrimidin-2-yl)piperidin-4-yl)propoxy)-2-fluorophenyl)-1-(3-(2-((1,3-dihydroxypropan-2-yl)amino)ethyl)azetidin-1-yl)ethan-1-one]
